Results: patent publication US12594267B2, “Capsid inhibitors for the treatment of HIV” (Gilead Sciences, Inc., priority 2018, dated 2026)

Experiment: PK after subcutaneous administration of solutions in dogs
Format: in vivo, Beagle dog
Procedure: Formulations containing the compound of Formula (Ia) were prepared as aqueous solutions or oral formulations and administered subcutaneously to rats, dogs, cynomolgus monkey, and/or rhesus monkey.
A solution of the compound of Formula (Ia) in 10% ethanol, 13% water, and 77% PEG 200 (400 mg/mL) was prepared. The solution was administered subcutaneously to dogs at a dose of 12 mg/kg and rats at a dose of 50 mg/kg and the pharmacokinetic (PK) profile was determined. […] In both species, plasma concentrations of the compound of Formula (Ia) were maintained above the target trough concentration of 20 nM (corresponding to an IQ of 5) for at least 84 days (12 weeks).
A solution of the compound of Formula (Ia) in 15% water and 85.0 PEG 300 (400 mg/mL) was prepared. The solution was administered subcutaneously to male beagle dogs at a dose level of 12 mg/kg and dose volume of […] and the pharmacokinetic (PK) profile was determined.
A solution of the compound of Formula (a) sodium salt in water and 300 (300 mg/mL) was prepared that contained 22.6% water/50% PEG 300/1.1% NaOH/26.3% Formula (Ia). The solution was administered subcutaneously to male beagle dogs at a dose level of 12 mg/kg and dose volume of […] and the pharmacokinetic (PK) profile was determined.
A 300 mg/ml solution of a compound of Formula (Ia) having 9.8 w/w % water, 65.0 w/w % PEG 300, and 25.2 w/w % of the compound of Formula (Ia) was prepared. The solution was administered subcutaneously to rats at a dose of 50 mg/kg and to dogs at a dose of 12 mg/kg and the pharmacokinetic (PK) profile was determined. […] In the rat, plasma concentrations of the compound of Formula (Ia) were maintained above the target trough concentration of 20 nM for at least 168 days (24 weeks). In the dog, plasma concentrations of the compound of Formula (Ia) were maintained above the target trough concentration of 20 nM for at least 84 days (12 weeks).
(§1) A 150 mg/ml solution of a compound of Formula (Ia) having 27.92 w/w % water, 58.04 w/w % PEG 300, 13.47 w/w % of a compound of Formula (Ia), and 1.1 w/w % NaOH was prepared. The solution was administered subcutaneously to rats at a dose of 50 mg/kg and to dogs at a dose of 12 mg/kg and the pharmacokinetic (PK) profile was determined. […] In the rat, plasma concentrations of the compound of Formula (Ia) were maintained above the target trough concentration of 20 nM for at least 126 days (18 weeks). In the dog, plasma concentrations of the compound of Formula (Ia) were maintained above the target trough concentration of 20 nM for at least 56 days (8 weeks).
as §1, with “300” for “150”, “23.2” for “27.92”, “50.0” for “58.04”, “25.7” for “13.47”
A 50 mg/ml solution of a compound of Formula (Ia) having 30.07 w/w % water, 64.40 w/w % PEG 300, 4.68 w/w % of a sodium salt of the compound of Formula (Ia), and 0.85 w/w % poloxamer 188 was prepared. The solution was administered subcutaneously to rats at a dose of 50 mg/kg and to dogs at a dose of 6 mg/kg and the pharmacokinetic (PK) profile was determined. […] In the rat, plasma concentrations of the compound of Formula (Ia) were maintained above the target trough concentration of 20 nM for at least 28 days (4 weeks). In the dog, plasma concentrations of the compound of Formula (Ia) were maintained above the target trough concentration of 20 nM for at least 14 days (2 weeks). […]

[1] = beagle, dog, plasma, sc, 12 mg/kg, SC 12 mg/kg, 400 mg/mL solution in 10% ethanol, 13% water, 77% PEG 200, mean ± SD, n=3
[2] = dog, SC 12 mg/kg, 150 mg/mL solution (w/w %: 27.92 water, 58.04 PEG 300, 13.47 Formula (Ia), 1.1 NaOH), mean ± SD, n=3

For `CC(C)(C#Cc1ccc(-c2ccc(Cl)c3c(NS(C)(=O)=O)nn(CC(F)(F)F)c23)c([C@H](Cc2cc(F)cc(F)c2)NC(=O)Cn2nc(C(F)(F)F)c3c2C(F)(F)[C@@H]2C[C@H]32)n1)S(C)(=O)=O` [Formula (Ia), N—((S)-1-(3-(4-chloro-3-(methylsulfonamido)-1-(2,2,2-trifluoroethyl)-1H-indazol-7-yl)-6-(3-methyl-3-(methylsulfonyl)but-1-yn-1-yl)pyridin-2-yl)-2-(3,5-difluorophenyl)ethyl)-2-((3bS,4aR)-5,5-difluoro-3-(trifluoromethyl)-3b,4,4a,5-tetrahydro-1H-cyclopropa[3,4]cyclopenta[1,2-c]pyrazol-1-yl)acetamide], the AUC(0-t) (beagle, dog, plasma, sc, 12 mg/kg, dog, SC 12 mg/kg, 400 mg/mL solution in 10% ethanol, 13% water, 77% PEG 200, mean ± SD, n=3, read-out: AUC0-140d) was 111 ± 14 µM·h, the concentration at 84 d (beagle, dog, plasma, sc, 12 mg/kg, dog, SC 12 mg/kg, 400 mg/mL solution in 10% ethanol, 13% water, 77% PEG 200, mean ± SD, n=3, read-out: C84d) was 23.4 ± 5.7 nM and the Cmax [1] was 107 ± 13 nM. For the same compound, the Tmax [1] was 14 days, the Plasma concentration (dog #1, 0 h, SC 12 mg/kg, 400 mg/mL in 15% water/85% PEG 300) was “BLQ” and the Plasma concentration (dog #1, 1.0 h, SC 12 mg/kg, 400 mg/mL in 15% water/85% PEG 300) was “BLQ”. For the same compound, the Plasma concentration (dog #2, 0 h, SC 12 mg/kg, 400 mg/mL in 15% water/85% PEG 300) was “BLQ”, the Plasma concentration (dog #3, 0 h, SC 12 mg/kg, 400 mg/mL in 15% water/85% PEG 300) was “BLQ” and the “Time plasma concentrations maintained above the target trough concentration of 20 nM” value (dog, SC 6 mg/kg, 50 mg/mL solution (w/w %: 30.07 water, 64.40 PEG 300, 4.68 sodium salt of Formula (Ia), 0.85 poloxamer 188)) was “at least 14 days”. For the same compound, the “Time plasma concentrations maintained above the target trough concentration of 20 nM” value (dog, SC 6 mg/kg, 75 mg/mL solution (w/w %: 29.21 water, 62.55 PEG 300, 6.97 sodium salt of Formula (Ia), 1.68 poloxamer 188)) was “at least 21 days”, the “Time plasma concentrations maintained above the target trough concentration of 20 nM” value (dog, SC 6 mg/kg, 100 mg/mL solution (w/w %: 28.36 water, 60.73 PEG 300, 9.23 sodium salt of Formula (Ia), 1.68 poloxamer 188)) was “at least 14 days” and the AUC0-14d (dog, SC 6 mg/kg, 100 mg/mL solution (w/w %: 28.36 water, 60.73 PEG 300, 9.23 sodium salt of Formula (Ia), 1.68 poloxamer 188), mean ± SD, n=3) was 104 ± 26 µM·h. For the same compound, the “Time plasma concentrations maintained above the target trough concentration of 20 nM” value (dog, SC 6 mg/kg, 125 mg/mL solution (w/w %: 27.51 water, 58.92 PEG 300, 11.48 sodium salt of Formula (Ia), 2.09 poloxamer 188)) was “at least 14 days”, the “Time plasma concentrations maintained above the target trough concentration of 20 nM” value (dog, SC 6 mg/kg, 150 mg/mL solution (w/w %: 26.6 water, 56.97 PEG 300, 13.39 Formula (Ia), 0.57 NaOH, 2.49 poloxamer 188)) was “at least 56 days” and the “Time plasma concentrations maintained above the target trough concentration of 20 nM” value (dog, SC 6 mg/kg, 300 mg/mL solution (w/w %: 21.97 water, 47.05 PEG 300, 25.21 Formula (Ia), 1.08 NaOH, 4.69 poloxamer 188)) was “at least 56 days”. For the same compound, the AUC0-84d (dog, SC 6 mg/kg, 300 mg/mL solution (w/w %: 21.97 water, 47.05 PEG 300, 25.21 Formula (Ia), 1.08 NaOH, 4.69 poloxamer 188), mean ± SD, n=3) was 65.4 ± 21.5 µM·h, the “Time plasma concentrations maintained above the target trough concentration of 20 nM” value (dog, SC 12 mg/kg, 150 mg/mL solution (w/w %: 27.92 water, 58.04 PEG 300, 13.47 Formula (Ia), 1.1 NaOH)) was “at least 56 days” and the AUC0-28d [2] was 137.0 ± 38 µM·h. For the same compound, the AUC0-126d [2] was 196 ± 31 µM·h, the “Time plasma concentrations maintained above the target trough concentration of 20 nM” value (dog, SC 12 mg/kg, 300 mg/mL solution (w/w %: 9.8 water, 65.0 PEG 300, 25.2 Formula (Ia))) was “at least 84 days” and the “Time plasma concentrations maintained above the target trough concentration of 20 nM” value (dog, SC 12 mg/kg, 300 mg/mL solution (w/w %: 23.2 water, 50.0 PEG 300, 25.7 Formula (Ia), 1.1 NaOH)) was “at least 56 days”. For the same compound, the “Time plasma concentrations maintained above the target trough concentration of 20 nM” value (dog, SC 12 mg/kg, 400 mg/mL solution in 10% ethanol, 13% water, 77% PEG 200) was “at least 84 days”, the concentration at 3 h (male, beagle, dog, plasma, sc, 12 mg/kg, dog #1, 3.0 h, SC 12 mg/kg, 400 mg/mL in 15% water/85% PEG 300) was 1.2 nM and the concentration at 8 h (male, beagle, dog, plasma, sc, 12 mg/kg, dog #1, 8.0 h, SC 12 mg/kg, 400 mg/mL in 15% water/85% PEG 300) was 10.6 nM. It also gave a concentration at 24 h (male, beagle, dog, plasma, sc, 12 mg/kg, dog #1, 24.0 h, SC 12 mg/kg, 400 mg/mL in 15% water/85% PEG 300) of 19.8 nM, a concentration at 48 h (male, beagle, dog, plasma, sc, 12 mg/kg, dog #1, 48.0 h, SC 12 mg/kg, 400 mg/mL in 15% water/85% PEG 300) of 54.6 nM and a concentration at 72 h (male, beagle, dog, plasma, sc, 12 mg/kg, dog #1, 72.0 h, SC 12 mg/kg, 400 mg/mL in 15% water/85% PEG 300) of 62.8 nM. The concentration at 96 h (male, beagle, dog, plasma, sc, 12 mg/kg, dog #1, 96.0 h, SC 12 mg/kg, 400 mg/mL in 15% water/85% PEG 300) was 58.9 nM and the concentration at 168 h (male, beagle, dog, plasma, sc, 12 mg/kg, dog #1, 168 h, SC 12 mg/kg, 400 mg/mL in 15% water/85% PEG 300) was 71.9 nM.
